Where a name gives a salt, the structure may show the parent alone.

This test addresses T1, recombinant human NPY Y2 receptors (Homo sapiens, UniProt P49146).
T1 construct: expressed in transfected cells; host or cells: CHO-C4 cells (membrane preparation)
T1 sequence (P49146 1-381): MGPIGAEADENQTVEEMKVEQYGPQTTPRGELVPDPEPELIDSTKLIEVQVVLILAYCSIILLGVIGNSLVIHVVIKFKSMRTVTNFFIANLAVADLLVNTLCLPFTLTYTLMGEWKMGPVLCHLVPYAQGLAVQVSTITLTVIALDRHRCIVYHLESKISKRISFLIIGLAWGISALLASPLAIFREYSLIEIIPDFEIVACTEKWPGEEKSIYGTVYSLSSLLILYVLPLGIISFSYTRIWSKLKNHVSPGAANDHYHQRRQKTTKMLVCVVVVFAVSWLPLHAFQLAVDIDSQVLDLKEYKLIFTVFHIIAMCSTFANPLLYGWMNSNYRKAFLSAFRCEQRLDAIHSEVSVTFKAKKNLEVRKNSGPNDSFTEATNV
Kind of test: Scintillation proximity [35S]GTPγS binding assay (inhibition of 0.5 nM NPY-stimulated [35S]GTPγS binding). The test is classed as biochemical. To be noted: 10 μM compound, membranes from CHO-C4 cells expressing recombinant human NPY Y2 receptors, read-out: [%] inhibiton at 10 μM. The method, then:
Preparation of Membranes: CHO-C4 cells expressing recombinant human NPY Y2 receptors were used to prepare membranes for the GTPγS assay. Cells were grown to 80-95% confluency on 15-cm (225 cm^2) tissue culture plates. After aspiration of the culture medium, cells were washed twice with 18 ml ice-cold phosphate-buffered saline (PBS), scraped off and suspended in 3 ml ice-cold PBS in pre-cooled centrifuge tubes. The dishes were rinsed with 2 ml ice-cold PBS per dish and the washings were combined with the PBS cell suspension from above. Cells pooled from 5-7 dishes were centrifuged for 5 min at 10,000 rpm (12,000 g) in a Sorvall RC5B centrifuge using an SS34 rotor at 4° C. The cell pellet was resuspended in 5 ml ice-cold buffer (20 mM HEPES, 10 mM EDTA; pH 7.4) by vortexing (2-5 sec), homogenized using a Polytron (step 4 for 20-30 sec), and ice-cold buffer added to 25 ml. The suspension was centrifuged again for 20 min at 18,000 rpm (39,000 g) at 4° C. and the pellet resuspended in 5 ml ice-cold buffer (20 mM HEPES, 0.1 mM EDTA; pH 7.4) by vortexing (2-5 sec), homogenized with a Polytron (step 4 for 10 sec), and ice-cold buffer added to 25 ml. The suspension was centrifuged a third time for 20 min at 18,000 rpm (39,000 g) at 4° C. The pellet was resuspend in 1 ml ice-cold buffer (20 mM HEPES, 0.1 mM EDTA; pH 7.4) by vortexing (5-8 sec). Two to five resuspended pellets were combined and homogenized using a Polytron (step 4 for 15-25 sec). A small aliquot (20-50 μl) was removed for protein determination by the Coomassie Plus Protein Assay Reagent (Pierce) using BSA as standard. The membrane suspension was aliquoted in pre-cooled (on dry ice) Eppendorf tubes (0.25-1 ml/tube affording approximately 0.5-2 mg of membrane protein/tube). The pellets were frozen and stored at −80° C.
Scintillation proximity [^35S]GTPγS binding assay: Frozen membranes from CHO-C4 cells expressing recombinant human NPY Y2 receptors (2 mg for four 96-well plates) were thawed on ice. Thawed membranes were pipetted into 10 ml of assay buffer (20 mM HEPES, 10 mM MgCl2, 100 mM NaCl, pH 7.4) and homogenized briefly using a Polytron. The final assay mixture was prepared in 96-well microtiter plates (Isoplate Wallac, Perkin Elmer). The composition of the assay mixtures in a final volume of 250 μl per well was as follows: 20 mM HEPES, 10 mM MgCl2, 100 mM NaCl, pH 7.4, 30 μM GDP, 1 mg/ml BSA (added fresh), 5 μg membrane protein, 1.5 mg Wheatgerm agglutinin SPA beads (Amersham), 0.45 nM [^35S]GTPγS (Amersham, SJ1308. 1000 Ci/mmol, stabilized solution), and the test compounds (agonists and/or antagonists) at the appropriate concentrations. The samples were incubated at room temperature for 90 min by shaking, after which the SPA beads were sedimented by centrifugation in an Eppendorf 5804 centrifuge at 2700 rpm for 10 min at room temperature. After 60 min the plates were counted in a TopCount (Canberra). Basal [^35S]GTPγS binding was measured in the absence of agonist (NPY). Non-specific binding was measured in the presence of excess (10 μM) unlabelled GTPγS (Sigma). Nonspecific binding never exceeded 10% of basal binding and was thus not subtracted from the experimental data. Antagonists were tested for the inhibition of 0.5 nM NPY-stimulated [^35S]GTPγS binding. Antagonist inhibition curves were analyzed by non-linear regression using GraphPad Prism software (Version 4.0, GraphPad Software Inc., CA, USA).
Antagonistic activity of compounds of the present invention is examined by the Scintillation proximity [^35S]GTPγS binding assay as described above (inhibition of 0.5 nM NPY-stimulated [^35S]GTPγS binding). The table below represents percentages of inhibition at a concentration of 10 μM.
Background: SPA uses beads or plates that emit light when radiolabelled molecules are held near them.
For the compound `Cc1noc(C)c1NC(=O)Nc1ccc(N2CCN(C(c3ccccc3)c3ccccc3)CC2)c(C#N)c1` [Compound 1, 1-[4-(4-Benzhydryl-piperazin-1-yl)-3-cyano-phenyl]-3-(3,5-dimethyl-isoxazol-4-yl)-urea], the inhibition at 10 µM amounted to 95%.
With `N#Cc1cc(NC(=O)C2CCOC2)ccc1N1CCN(C(c2ccccc2)c2ccccc2)CC1` (stereo not shown) [Compound 2, Tetrahydro-furan-3-carboxylic acid [4-(4-benzhydryl-piperazin-1-yl)-3-cyano-phenyl]-amide], the inhibition at 10 µM amounted to 89%.
With `CCC(CC)C(=O)Nc1ccc(N2CCN(C(c3ccccc3)c3ccccc3)CC2)c(C#N)c1` [Compound 3, N-[4-(4-Benzhydryl-piperazin-1-yl)-3-cyano-phenyl]-2-ethyl-butyramide], the inhibition at 10 µM is 88%.
Consider `Cc1noc(C)c1NC(=O)Nc1ccc(N2CCN(C(c3ccccc3)c3ccccc3)CC2)c(F)c1` [Compound 4, 1-[4-(4-Benzhydryl-piperazin-1-yl)-3-fluoro-phenyl]-3-(3,5-dimethyl-isoxazol-4-yl)-urea], for which the inhibition at 10 µM stood at 89%.
On to `O=C(Nc1ccc(N2CCN(C(c3ccccc3)c3ccccc3)CC2)c(F)c1)C1CCOC1` (stereo not shown) [Compound 5], for which the inhibition at 10 µM was 85%.
With `CCC(CC)C(=O)Nc1ccc(N2CCN(C(c3ccccc3)c3ccccc3)CC2)c(F)c1` [Compound 6], the inhibition at 10 µM stood at 89%.
For the compound `Cc1noc(C)c1NC(=O)Nc1ccc(N2CCN(C(c3ccc(F)cc3)c3ccc(F)cc3)CC2)c(C#N)c1` [Compound 7], the inhibition at 10 µM stood at 87%.
As to `Cc1noc(C)c1NC(=O)Nc1ccc(N2CCN(C(c3ccc(F)cc3)c3ccc(F)cc3)CC2)c(F)c1` [Compound 8, 1-(4-{4-[Bis-(4-fluoro-phenyl)-methyl]-piperazin-1-yl}-3-fluoro-phenyl)-3-(3,5-dimethyl-isoxazol-4-yl)-urea], the inhibition at 10 µM was determined as 86%.
The value for `Cc1noc(C)c1C(=O)Nc1ccc(N2CCN(C(c3ccccc3)c3ccccc3)CC2)c(F)c1` [Compound 9, 3,5-Dimethyl-isoxazole-4-carboxylic acid [4-(4-benzhydryl-piperazin-1-yl)-3-fluoro-phenyl]-amide] was 85%; that for `Cc1ncccc1C(=O)Nc1ccc(N2CCN(C(c3ccccc3)c3ccccc3)CC2)c(F)c1` [Compound 10, N-[4-(4-Benzhydryl-piperazin-1-yl)-3-fluoro-phenyl]-2-methyl-nicotinamide] was 85%; that for `Cn1cccc1C(=O)Nc1ccc(N2CCN(C(c3ccccc3)c3ccccc3)CC2)c(F)c1` [Compound 11, 1-Methyl-1H-pyrrole-2-carboxylic acid [4-(4-benzhydryl-piperazin-1-yl)-3-fluoro-phenyl]-amide] was 62%.
In the case of `Cn1nccc1C(=O)Nc1ccc(N2CCN(C(c3ccccc3)c3ccccc3)CC2)c(F)c1` [Compound 12, 2-Methyl-2H-pyrazole-3-carboxylic acid [4-(4-benzhydryl-piperazin-1-yl)-3-fluoro-phenyl]-amide], the inhibition at 10 µM is 65%.
In the case of `Cc1noc(C)c1NC(=O)Nc1ccc(N2CCC(C(c3ccccc3)c3ccccc3)CC2)c(C#N)c1` [Compound 13], the inhibition at 10 µM is 91%.
The value for `N#Cc1cc(NC(=O)C2CCOC2)ccc1N1CCC(C(c2ccccc2)c2ccccc2)CC1` (stereo not shown) [Compound 14, Tetrahydro-furan-3-carboxylic acid [4-(4-benzhydryl-piperidin-1-yl)-3-cyano-phenyl]-amide] was 90%.
Consider `CCC(CC)C(=O)Nc1ccc(N2CCC(C(c3ccccc3)c3ccccc3)CC2)c(C#N)c1` [Compound 15, N-[4-(4-Benzhydryl-piperidin-1-yl)-3-cyano-phenyl]-2-ethyl-butyramide], for which the inhibition at 10 µM worked out at 86%.
For `Cc1noc(C)c1NC(=O)Nc1ccc(N2CCC(C(c3ccccc3)c3ccccc3)CC2)c(F)c1` [Compound 16, 1-[4-(4-Benzhydryl-piperidin-1-yl)-3-fluoro-phenyl]-3-(3,5-dimethyl-isoxazol-4-yl)-urea], the inhibition at 10 µM worked out at 90%.
`O=C(Nc1ccc(N2CCC(C(c3ccccc3)c3ccccc3)CC2)c(F)c1)C1CCOC1` (stereo not shown) [Compound 17, Tetrahydro-furan-3-carboxylic acid [4-(4-benzhydryl-piperidin-1-yl)-3-fluoro-phenyl]-amide]: the inhibition at 10 µM worked out at 86%.
The value for `CCC(CC)C(=O)Nc1ccc(N2CCC(C(c3ccccc3)c3ccccc3)CC2)c(F)c1` [Compound 18, N-[4-(4-Benzhydryl-piperidin-1-yl)-3-fluoro-phenyl]-2-ethyl-butyramide] was 85%.
`CCC(CC)c1nc2cc(N3CCN(C(c4ccccc4)c4ccccc4)CC3)c(F)cc2[nH]1` [Compound 19, 5-(4-Benzhydryl-piperazin-1-yl)-2-(1-ethyl-propyl)-6-fluoro-1H-benzoimidazole]: the inhibition at 10 µM came out at 82%.
The value for `Fc1cc2[nH]c(C3CCOC3)nc2cc1N1CCN(C(c2ccccc2)c2ccccc2)CC1` (stereo not shown) [Compound 20, 5-(4-Benzhydryl-piperazin-1-yl)-6-fluoro-2-(tetrahydro-furan-3-yl)-1H-benzoimidazole] was 53%; that for `Cc1noc(C)c1-c1nc2cc(N3CCN(C(c4ccccc4)c4ccccc4)CC3)c(F)cc2[nH]1` [Compound 21, 5-(4-Benzhydryl-piperazin-1-yl)-2-(3,5-dimethyl-isoxazol-4-yl)-6-fluoro-1H-benzoimidazole] was 44%; that for `Cc1noc(C)c1Nc1nc2cc(N3CCN(C(c4ccccc4)c4ccccc4)CC3)c(F)cc2[nH]1` [Compound 22, [5-(4-Benzhydryl-piperazin-1-yl)-6-fluoro-1H-benzoimidazol-2-yl]-(3,5-dimethyl-isoxazol-4-yl)-amine triluoroacetate salt] was 71%.
The value for `CCC(CC)Nc1nc2cc(N3CCN(C(c4ccccc4)c4ccccc4)CC3)c(F)cc2[nH]1` [Compound 23, 5-(4-Benzhydryl-piperazin-1-yl)-6-fluoro-1H-benzoimidazol-2-yl]-(1-ethyl-propyl)-amine triluoroacetate salt] was 72%; that for `CCC(CC)C(=O)Nc1ccc(N2CCC(C(c3ccccn3)c3ccccn3)CC2)c(F)c1` [Compound 24, N-{4-[4-(Di-pyridin-2-yl-methyl)-piperidin-1-yl]-3-fluoro-phenyl}-2-ethyl-butyramide] was 95%.
On to `CCC(CC)C(=O)Nc1ccc(N2CCN(C(c3ccccn3)[C@H]3CCCO3)CC2)c(F)c1` (stereo partly drawn) [Compound 25, 2-Ethyl-N-{3-fluoro-4-[4-((R)-pyridin-2-yl-tetrahydro-furan-2-yl-methyl)-piperazin-1-yl]-phenyl}-butyramide], for which the inhibition at 10 µM came out at 90%.

The record behind these values is US20090099199A1, “ORGANIC COMPOUNDS” (priority 2007, published 2009).
